US6162925A, “Antibiotic for methicillin resistant bacteria” (Research Corporation Tech., Inc., priority 1999, dated 2000)
≈ marks a conversion by molar mass, not a printed value.

Experiments:
[1] = Antibiotic activity by bioassay against authentic TAN-1057 A/B; assay type: cell-based; details: compared with authentic TAN-1057 A/B (Takeda)
Protocol: To a solution of 29 (40 mg, 0.045 mmol, 1.0 eq) in MeOH (1.5 mL)/CH2 Cl2 (0.5 mL) was added PdCl2 (40 mg). The reaction flask was degassed and charged with H2 (1 atm). The mixture was stirred for 30 min. The mixture was then purged with nitrogen, and filtered to remove the catalyst. The filtrate was concentrated and dried in vacuo to give a 2HCl salt of TAN-1057 A/B (1/2) (1:1, 20 mg, 100% yield) as an amorphous solid. This product was identical in mobility by HPLC, mnr and antibiotic activity by bioassay to authentic TAN-1057 A/B (Takeda). ^1 HNMR (300 MHz, D2 O): δ1.77 (4H, m); 2.85 (1H, dd, J=18, 9.3 Hz); 3.00 (1H, dd, J=18, 4.0 Hz); 3.17 (3H, s); 3.27 (2H, t, J=6.0 Hz); 3.70 (1H, m); 3.99 (2H, m); 5.14 (1H, dd, J=12, 8.5 Hz) ppm; IR (KBr pellet): 3350, 3179, 2955, 1696, 1622, 1395, 1205, 1135 cm^1. MS (ES^+): Calcd. (C13 H25 N9 O3 +H)=356.2, Found (M+H)=356.4.

[2] = Stability in 0.1 M phosphate buffer pH=5; assay type: physicochemical; details: 0.1 M phosphate buffer at pH=5
Protocol: Compound 36 (10 mg, 0.012 mmol) was treated with anisole (0.1 mL) and TFA (1.0 mL) at 0° C. The mixture was stirred for 1 h at room temperature, concentrated and purified by PTLC (silica gel, CH2 Cl2 : MeOH, 6:1) to give 6.0 mg of a semi-solid. To a solution of this substance (6 mg, 0.0066 mmol, 1.0 eq) in MeOH (1.0 mL)/CH2 Cl2 (0.5 mL) was added PdCl2 (8.0 mg) After degassing with N2, the reaction mixture was charged with H2 (1 atm.) and the mixture was hydrogenated for 10 min. The mixture was then purged with nitrogen, and filtered to remove the catalyst. The filtrate was concentrated and dried in vacuo to give a 2HCl salt of TAN-1057 C/D (1:1, 3 mg ~100% yield) as an amorphous solid. ^1 H NMR (300 MHz, DMSO-d6 vs TMS): δ1.51 (4H, m); 2.82 (3H, s); 2.70-2.90 (2H, m); 3.09 (2H, m); 3.43 (1H, m); 3.79 (2H, m); 4.66 (1/2H, m); 4.75 (1/2H, m); 7.26 (6H, m); 7.86 (1H, br); 8.06 (1H, br); 8.70 (2H, br); 9.15 (1H, br); 10.35 (1H, br) ppm. MS (FAB): Calcd. for (C13 H25 N9 O3 +H)=356.2. Found: (M+H)=356.3; (M+2H)^++ =178.7.

[3] = tested on: Staphylococcus aureus ATCC 29213; experiment: MIC, broth microdilution (NCCLS), S. aureus ATCC 29213; assay type: cell-based; details: ATCC29213, S. aureus ATCC 29213, reference strain, 35° C., 20 h, read-out: Minimal Inhibitory Concentration (MIC)
Protocol: (§1) Test compounds were assayed against Staphylococcus aureus FDA 209P by the 10 fold agar disc diffusion assay on BHI-plates at pH=7 and pH=9 in accordance with the procedure from the National Committee for Clinical Laboratory Standards 1989. Susceptibility testing. A panel of 16 bacteria was used to evaluate the antimicrobial activity of the compounds (Table 2). The MIC of each antimicrobial agent was determined using a microdilution method according to NCCLS standards^1. Serial twofold dilutions of antibiotics were prepared in Mueller-Hinton broth (Difco Laboratories, Detroit, Mich.). Bacteria were grown to early log phase at 35° C. (1 hours) in Mueller-Hinton broth and cultures were diluted to achieve a final inoculum of 5×10^5 CFU per ml. Microtiter plates were incubated at 35° C. for 20 h and then were read using a Thermomax microplate reader (Molecular Devices, Sunnyvale, Calif.) and a microtiter plate reading mirror. The MIC was defined as the lowest concentration of antibiotic which inhibited the development of visible growth at the end of the incubation period. The standard reference strains were Staphyloccocus aureus ATCC […], Enterococcus faecalis ATCC 29212, E. faecium ATCC 35667, Escherichia coli ATCC 25922, and Pseudomonas aeruginosa ATCC 27853. Imipenem and vancomycin were used as antibiotic controls and values for reference strains were in accordance with the NCCLS.
Staphylococcus ATCC Reference strain

[4] = tested on: Staphylococcus aureus COL8A; experiment: MIC, broth microdilution (NCCLS), S. aureus COL8A; assay type: cell-based; details: 20 h, read-out: Minimal Inhibitory Concentration (MIC)
Protocol: as §1
(§2) Staphylococcus Methicillin
aureus COL8A susceptible, […]

[5] = tested on: Staphylococcus aureus PC1; experiment: MIC, broth microdilution (NCCLS), S. aureus PC1; assay type: cell-based; details: S. aureus PC1, Type A βlactamase hyperproducer, 35° C., 20 h, read-out: Minimal Inhibitory Concentration (MIC)
Protocol: as §1
Staphylococcus Type A βlactamase
aureus PC1 hyperproducer

[6] = tested on: Staphylococcus aureus sa ATCC 13709; experiment: MIC, broth microdilution (NCCLS), S. aureus sa ATCC 13709; assay type: cell-based; details: ATCC13709, S. aureus sa ATCC 13709, Smith strain, 35° C., 20 h, read-out: Minimal Inhibitory Concentration (MIC)
Protocol: as §1

[7] = tested on: Staphylococcus aureus COL; experiment: MIC, broth microdilution (NCCLS), S. aureus COL; assay type: cell-based; details: S. aureus COL, methicillin resistant, β-lactamase negative, 35° C., 20 h, read-out: Minimal Inhibitory Concentration (MIC)
Protocol: as §1, §2
aureus COL resistant, β-

Staphylococcus aureus 76 = experiment: MIC, broth microdilution (NCCLS), S. aureus 76; assay type: cell-based; details: Staphylococcus aureus; S. aureus 76, methicillin resistant, β-lactamase positive; 35° C., 20 h; read-out: Minimal Inhibitory Concentration (MIC)
Protocol: as §1, §2

[8] = tested on: Staphylococcus aureus ATCC 33593; experiment: MIC, broth microdilution (NCCLS), S. aureus ATCC 33593; assay type: cell-based; details: ATCC33593, S. aureus ATCC 33593, methicillin resistant, β-lactamase positive, 35° C., 20 h, read-out: Minimal Inhibitory Concentration (MIC)
Protocol: as §1
Staphylococcus ATCC Methicillin
aureus ATCC 33593 resistant, β-

[9] = tested on: Staphylococcus aureus sa201; experiment: MIC, broth microdilution (NCCLS), S. aureus sa201; assay type: cell-based; details: S. aureus sa201, clinical isolate Spain, methicillin resistant, β-lactamase positive, 35° C., 20 h, read-out: Minimal Inhibitory Concentration (MIC)
Protocol: as §1
Staphylococcus Clinical isolate,
aureus sa201 Spain resistant, β-

[10] = tested on: Staphylococcus haemolyticus UA281; experiment: MIC, broth microdilution (NCCLS), S. haemolyticus UA281; assay type: cell-based; details: S. haemolyticus UA281, methicillin resistant, 35° C., 20 h, read-out: Minimal Inhibitory Concentration (MIC)
Protocol: as §1, §2
haemolyticus UA281 resistant

[11] = tested on: Enterococcus faecalis ATCC 29212; experiment: MIC, broth microdilution (NCCLS), E. faecalis ATCC 29212; assay type: cell-based; details: ATCC29212, E. faecalis ATCC 29212, reference strain, 35° C., 20 h, read-out: Minimal Inhibitory Concentration (MIC)
Protocol: as §1
(§3) Enterococcus ATCC Reference strain

[12] = tested on: Enterococcus faecium ATCC 35667; experiment: MIC, broth microdilution (NCCLS), E. faecium ATCC 35667; assay type: cell-based; details: ATCC35667, E. faecium ATCC 35667, reference strain, 35° C., 20 h, read-out: Minimal Inhibitory Concentration (MIC)
Protocol: as §1, §3

[13] = tested on: Enterococcus faecium BM4147; experiment: MIC, broth microdilution (NCCLS), E. faecium BM4147; assay type: cell-based; details: E. faecium BM4147, vancomycin resistant, vanA, 35° C., 20 h, read-out: Minimal Inhibitory Concentration (MIC)
Protocol: as §1
Enterococcus Vancomycin
faecium BM4147 resistant, vanA

[14] = tested on: Enterococcus faecium efm040; experiment: MIC, broth microdilution (NCCLS), E. faecium efm040; assay type: cell-based; details: E. faecium efm040, clinical isolate U.S.A., ampicillin resistant, 35° C., 20 h, read-out: Minimal Inhibitory Concentration (MIC)
Protocol: as §1
Enterococcus Clinical isolate,
faecium efm040 U.S.A. resistant

[15] = tested on: Escherichia coli ATCC 25922; experiment: MIC, broth microdilution (NCCLS), E. coli ATCC 25922; assay type: cell-based; details: ATCC25922, E. coli ATCC 25922, reference strain, 35° C., 20 h, read-out: Minimal Inhibitory Concentration (MIC)
Protocol: as §1

[16] = tested on: Pseudomonas Aeruginosa ATCC 27853; experiment: MIC, broth microdilution (NCCLS), P. aeruginosa ATCC 27853; assay type: cell-based; details: ATCC27853, P. aeruginosa ATCC 27853, reference strain, 35° C., 20 h, read-out: Minimal Inhibitory Concentration (MIC)
Protocol: as §1

MRSA = details: cited from earlier work
[17] = tested on: Gram-positive and Gram-negative bacteria; details: S- versus R-configuration in the heterocyclic portion; cited from earlier work
[18] = cited from earlier work
[19] = cited from earlier work; remark: listed apart in the source

Q: Which “antibiotic activity by bioassay” value [1] does the source give for `CN(C(=O)C[C@@H](N)CCCNC(=N)N)C1CNC(NC(N)=O)=NC1=O` (stereo partly shown) [TAN-1057 A/B, 3S,5'S/R-3-amino-6-[(aminoiminomethyl)amino]-N-[2-[(aminocarbonyl)amino]-1,4,5,6-tetrahydro-4-oxo-5-pyrimidinyl)-N-methyl-hexanamide] here?
A: identical

Q: With `CN1C(=O)C[C@H](CCCNC(=N)N)NC(=O)C1CNC(=N)NC(N)=O` (stereo partly drawn) [TAN-1057 C/D, [[[[5-[3-[(aminoiminomethyl)amino]propyl]hexahydro-(2S/R,5S)-1-methyl-3,7-dioxo-1H-1,4-diazepin-2-yl]methyl]amino]iminomethyl]urea] as the molecule, how does the “reversion upon standing in phosphate buffer” value [2] read?
A: reverted to a mixture of 1 and 2

Q: Which MIC [3] does the source give for `CN(C(=O)C[C@@H](N)CCCNC(=N)N)[C@H]1CNC(NC(N)=O)=NC1=O` [TAN-1057A] here?
A: 16 µg/mL (≈ 45 µM)

Q: What about the MIC [4] of the same molecule?
A: 16 µg/mL (≈ 45 µM)

Q: What about the MIC [5] of the same molecule?
A: 8 µg/mL (≈ 22.5 µM)

Q: And the MIC [6]?
A: 16 µg/mL (≈ 45 µM)

Q: And the MIC [7]?
A: 16 µg/mL (≈ 45 µM)

Q: What about the MIC (Staphylococcus aureus 76) of the same molecule?
A: 16 µg/mL (≈ 45 µM)

Q: And the MIC [8]?
A: 16 µg/mL (≈ 45 µM)

Q: What about the MIC [9] of the same molecule?
A: 16 µg/mL (≈ 45 µM)

Q: And the MIC [10]?
A: 32 µg/mL (≈ 90 µM)

Q: What about the MIC [11] of the same molecule?
A: 32 µg/mL (≈ 90 µM)

Q: What about the MIC [12] of the same molecule?
A: 32 µg/mL (≈ 90 µM)

Q: What about the MIC [13] of the same molecule?
A: 32 µg/mL (≈ 90 µM)

Q: What about the MIC [14] of the same molecule?
A: 128 µg/mL (≈ 360 µM)

Q: And the MIC [15]?
A: 256 µg/mL (≈ 720 µM)

Q: What about the MIC [16] of the same molecule?
A: 256 µg/mL (≈ 720 µM)

Q: What about the “activity against MRSA” value (MRSA) of the same molecule?
A: potent activity against all of the MRSA strains evaluated

Q: And the “relative antibacterial activity of stereoisomers” value [17]?
A: more active than TAN-1057 B and C

Q: What about the “comparison to vancomycin in mice” value [18] of the same molecule?
A: compare very favorably to vancomycin in mice

Q: What about the hydrolysis ([19]; acidic and basic media, racemization of α-amino acid stereogenic center) of the same molecule?
A: occurs in both acidic and basic media

Q: What about the “loss of antibacterial activity in basic aqueous solutions” value ([19]; basic aqueous solutions, hydrolytic opening of six-membered ring) of the same molecule?
A: gradually lost their antibacterial activities in basic aqueous solutions
